US20220273716A1, “POPULATIONS OF NATURAL KILLER CELLS COMPRISING A CD38 CHIMERIC ANTIGEN RECEPTOR” (Celularity Inc., priority 2019, published 2022)
“Also recorded” adds a separate entry of the source. Like-named read-outs stand apart in the source and are kept apart here.

Assays:
CD34+ cells [1] = assay: NK cell expansion from CD34+ cells in three-stage culture with compound; format: cell-based, human; details: for support of NK expansion (and differentiation) / cell expansion compared to SR1: compound 10 μM during first 14 days, Day 35; for cell expansion compared to SR1: SR1 10 μM positive control; for expansion, differentiation and cytotoxicity profile versus SR1: PNK-007 culture
Excerpt: (§1) UCB CD34+ cells were cultivated in presence of cytokines including thrombopoietin, SCF, Flt3 ligand, IL-7, IL-15 and IL-2 for 35 days to produce three-stage NK cells, as described in Example 1. Multi-color flow cytometry was used to determine the phenotypic characteristics of three-stage NK cells.
(§2) For biological testing, the compounds were provided to culture to evaluate their effects on NK cell expansion and differentiation. Specifically, donors of CD34+ cells (StemCell Technology) were thawed and expanded in vitro following NK culture protocol. During the first 14 days of the culture, each CRL compounds was dissolved in DMSO and added to the culture at 10 μM concentration. SR1 (at 10 μM) served as a positive control compound, while DMSO alone without any compound served as a negative control. At the end of the culture on Day 35, cell expansion, natural killer (NK) cell differentiation and cytotoxicity of the cells against K562 tumor cell line were characterized. Due to the large number of the compounds, the testing was performed in two experiments, CRL1-11 and CRL 12-22. The same donors were used for each experiment. Positive and negative controls were also included in both experiments.

K562 tumor cells = assay: Cytotoxicity assay of compound cultured cells against K562 tumor cells; format: cell-based; details: 10:1 E:T ratio, both donors
Protocol: as §2
Cytotoxicity assay was run using compound cultured cells against K562 tumor cells at 10:1 effector to target ratio (FIG. 5) to evaluate cell functions.

CD34+ cells [2] = assay: NK cell differentiation of compound cultured cells (flow cytometry); format: cell-based, human; details: compared to SR1
Excerpt: as §1, §2

CD34 cells = assay: CD34 cell expansion at Day 14 of the culture; format: cell-based, human; details: compound 10 μM
Protocol: as §2

multiple myeloma = details: cited from earlier work

SMILES | support of NK expansion (and differentiation) (CD34+ cells [1]) | killing activity compared to cells cultured with SR1 (K562 tumor cells) | cell expansion compared to SR1 (CD34+ cells [1]) | CD56+/CD11a+ subpopulation (CD34+ cells [2]) | expansion, differentiation and cytotoxicity profile versus SR1 (CD34+ cells [1]) | CD34 cell expansion (CD34 cells) | also measured
CCC(C)Nc1cc(-c2cncc(C#N)c2)nc(NCCc2c[nH]c3ccccc23)n1 (stereo not drawn) [CRL7, 5-(2-((2-(1H-indol-3-yl)ethyl)amino)-6-(sec-butylamino)pyrimidin-4-yl)nicotinonitrile] | Except for CRL7 and CRL13, the rest of the compounds all resulted in a NK expansion; also recorded: all the compounds except CRL7 and CRL13 supported PNK-007 expansion and differentiation | – | – | – | – | – | –
CCC(C)Nc1nc(NCCc2c[nH]c3ccccc23)c2ccccc2n1 (stereo not drawn) [CRL13, N^4-(2-(1H-indol-3-yl)ethyl)-N^2-(sec-butyl)quinazoline-2,4-diamine] | Except for CRL7 and CRL13, the rest of the compounds all resulted in a NK expansion; also recorded: all the compounds except CRL7 and CRL13 supported PNK-007 expansion and differentiation | – | – | – | – | – | –
CC(C)c1csc2c(NCCc3c[nH]c4ccccc34)nc(-c3cncc(C#N)c3)nc12 [CRL17, 5-(4-((2-(1H-indol-3-yl)ethyl)amino)-7-isopropylthieno[3,2-d]pyrimidin-2-yl)nicotinonitrile] | – | increased killing activities | slightly less expansion compared to SR1 | increased CD56+/CD11a+ subpopulation | – | – | –
CC(C)c1csc2c(NCCc3c[nH]c4ccccc34)nc(-c3cncc(F)c3)nc12 [CRL18, N-(2-(1H-indol-3-yl)ethyl)-2-(5-fluoropyridin-3-yl)-7-isopropylthieno[3,2-d]pyrimidin-4-amine] | – | increased killing activities | slightly less expansion compared to SR1 | increased CD56+/CD11a+ subpopulation | – | – | –
Fc1cncc(-c2nc(NCCc3c[nH]c4ccccc34)c3occc3n2)c1 [CRL19, N-(2-(1H-indol-3-yl)ethyl)-2-(5-fluoropyridin-3-yl)furo[3,2-d]pyrimidin-4-amine] | supported cell expansion the best | – | – | – | very similar expansion, differentiation and cytotoxicity profiles as SR1 | achieved the highest CD34 cell expansion | –
Cc1cncc(-c2nc(NCCc3c[nH]c4ccccc34)c3occc3n2)c1 [CRL20, N-(2-(1H-indol-3-yl)ethyl)-2-(5-methylpyridin-3-yl)furo[3,2-d]pyrimidin-4-amine] | supported cell expansion the best | – | – | – | very similar expansion, differentiation and cytotoxicity profiles as SR1 | achieved the highest CD34 cell expansion | –
Cc1cncc(-c2nc(NCCc3c[nH]c4ccccc34)c3scc(C(C)C)c3n2)c1 [CRL21, N-(2-(1H-indol-3-yl)ethyl)-7-isopropyl-2-(5-methylpyridin-3-yl)thieno[3,2-d]pyrimidin-4-amine] | – | increased killing activities | slightly less expansion compared to SR1 | increased CD56+/CD11a+ subpopulation | – | – | –
N#Cc1cncc(-c2nc(NCCc3c[nH]c4ccccc34)c3occc3n2)c1 [CRL22, 5-(4-((2-(1H-indol-3-yl)ethyl)amino)furo[3,2-d]pyrimidin-2-yl)nicotinonitrile] | supported cell expansion the best | – | – | – | very similar expansion, differentiation and cytotoxicity profiles as SR1 | achieved the highest CD34 cell expansion | –
Nc1cccc2c1CN(C1CCC(=O)NC1=O)C2=O (stereo not drawn) [lenalidomide, 3-(4′aminoisoindoline-1′-one)-1-piperidine-2,6-dione] | – | – | – | – | – | – | ORR (VGPR or better) (multiple myeloma; 1 year post ASCT): 48%; ORR (VGPR or better) (multiple myeloma; 2 year post ASCT): 36%; hazard ratio (TTP, vs placebo) (multiple myeloma; 95% CI 0.46-0.71): 0.57; median TTP (multiple myeloma; not accounting for crossover): 57.3 months
